Experimental data from US12304890B2, “R-type pyridyloxycarboxylic acid, salt and ester derivative thereof, and preparation method therefor, and herbicidal composition and application thereof” (Qingdao Kingagroot Chemical Compound Co., Ltd., priority 2018, dated 2025).

What was measured:
Type in all cases: in vivo
Digitaria sanguinalis = assay: Post-emergence test experiment, Digitaria sanguinalis; conditions: 1000 g a.i./ha, 3 weeks in greenhouse, fresh weight inhibition
Description: (§1) The above described growth inhibition rate is fresh weight inhibition rate.
(§2) Post-emergence test experiment: Monocotyledonous and dicotyledonous weed seeds and main crop seeds (i. e. wheat, corn, rice, soybean, cotton, oilseed, millet and sorghum.) were put into a plastic pot loaded with soil. Then covered with 0.5-2 cm soil, the seeds were allowed to grow in good greenhouse environment. The test plants were treated at 2-3 leaf stage 2 weeks after sowing. The test compounds of the invention were dissolved with acetone respectively, then added with tween-80, and using 1.5 liters per hectare of an emulsible concentrate of methyl oleate as a synergist, and diluted by certain amount of water to certain concentration. The solution was sprayed to the plants with a sprayer. Then the plants were cultured for 3 weeks in the greenhouse, and the experiment result of weed controlling effect was listed in tables 4-5.

Echinochloa crusgalli = assay: Post-emergence test experiment, Echinochloa crusgalli; conditions: for Activity level (growth inhibition rate), Echinochloa crusgalli: 1000 g a.i./ha, 3 weeks in greenhouse, fresh weight inhibition
Description: as §1, §2

[1] = test system: Monocotyledonous and dicotyledonous weed seeds and main crop seeds; assay: Post-emergence test experiment, other weeds and crops (Table 4, 1000 g a.i./ha); conditions: 3 weeks in greenhouse, fresh weight inhibition
Description: as §1
as §2, with “sprayer.” for “sprayer. Then the plants were cultured for 3 weeks in the greenhouse, and the experiment result of weed controlling effect was listed in tables 4-5.”

Row | Compound | Activity level (growth inhibition rate), Digitaria sanguinalis (Digitaria sanguinalis) | Activity level (growth inhibition rate), Echinochloa crusgalli (Echinochloa crusgalli) | Activity level (growth inhibition rate), Abutilon theophrasti Medic. [1] | Activity level (growth inhibition rate), Galium aparine [1] | Activity level (growth inhibition rate), Monochoria Vaginalis [1] | inhibition at 200 g/ha (Echinochloa crusgalli; Echinochloa crus-galli, 504 h, 200 g a.i./ha, 3 weeks, weed resistant to ALS inhibitor and ACCe herbicides, read-out: Echinochloa crusgalli, activity level (growth inhibition rate)) [%]
1 | CC(Oc1nc(F)c(Cl)c(N)c1Cl)C(=O)[S-].CC(Oc1nc(F)c(Cl)c(N)c1Cl)C(=O)[S-].[Ca+2] (stereo not shown) [Compound 2-2] | 5 (Level 5: the growth inhibition rate is greater than 85%) | 5 (Level 5: the growth inhibition rate is greater than 85%) | 5 (Level 5: the growth inhibition rate is greater than 85%) | 5 (Level 5: the growth inhibition rate is greater than 85%) | 5 (Level 5: the growth inhibition rate is greater than 85%) | 
2 | CC(Oc1nc(F)c(Cl)c(N)c1Cl)C(=O)O.N (stereo not shown) [Compound 2-3] | 5 (Level 5: the growth inhibition rate is greater than 85%) | 5 (Level 5: the growth inhibition rate is greater than 85%) | 5 (Level 5: the growth inhibition rate is greater than 85%) | 5 (Level 5: the growth inhibition rate is greater than 85%) | 5 (Level 5: the growth inhibition rate is greater than 85%) | 
3 | CC(Oc1nc(F)c(Cl)c(N)c1Cl)C(=O)[S-].C[N+](C)(C)C (stereo not shown) [Compound 2-4] | 5 (Level 5: the growth inhibition rate is greater than 85%) | 5 (Level 5: the growth inhibition rate is greater than 85%) | 5 (Level 5: the growth inhibition rate is greater than 85%) | 5 (Level 5: the growth inhibition rate is greater than 85%) | 5 (Level 5: the growth inhibition rate is greater than 85%) | 
4 | CC(Oc1nc(F)c(Cl)c(N)c1Cl)C(=O)O.CNC (stereo not shown) [Compound 2-7] | 5 (Level 5: the growth inhibition rate is greater than 85%) | 5 (Level 5: the growth inhibition rate is greater than 85%) | 5 (Level 5: the growth inhibition rate is greater than 85%) | 5 (Level 5: the growth inhibition rate is greater than 85%) | 5 (Level 5: the growth inhibition rate is greater than 85%) | 
5 | CC(Oc1nc(F)c(Cl)c(N)c1Cl)C(=O)O.CN(C)CCO (stereo not shown) [Compound 2-14] | 5 (Level 5: the growth inhibition rate is greater than 85%) | 5 (Level 5: the growth inhibition rate is greater than 85%) | 5 (Level 5: the growth inhibition rate is greater than 85%) | 5 (Level 5: the growth inhibition rate is greater than 85%) | 5 (Level 5: the growth inhibition rate is greater than 85%) | 
6 | CC(N)CN.CC(Oc1nc(F)c(Cl)c(N)c1Cl)C(=O)S (stereo not shown) [Compound 2-17] | 5 (Level 5: the growth inhibition rate is greater than 85%) | 5 (Level 5: the growth inhibition rate is greater than 85%) | 5 (Level 5: the growth inhibition rate is greater than 85%) | 5 (Level 5: the growth inhibition rate is greater than 85%) | 5 (Level 5: the growth inhibition rate is greater than 85%) | 
7 | CC(Oc1nc(F)c(Cl)c(N)c1Cl)C(=O)O.CCC(N)(CO)CO (stereo not shown) [Compound 2-22] | 5 (Level 5: the growth inhibition rate is greater than 85%) | 5 (Level 5: the growth inhibition rate is greater than 85%) | 5 (Level 5: the growth inhibition rate is greater than 85%) | 5 (Level 5: the growth inhibition rate is greater than 85%) | 5 (Level 5: the growth inhibition rate is greater than 85%) | 
8 | C1COCCN1.CC(Oc1nc(F)c(Cl)c(N)c1Cl)C(=O)O (stereo not shown) [Compound 2-24] | 5 (Level 5: the growth inhibition rate is greater than 85%) | 5 (Level 5: the growth inhibition rate is greater than 85%) | 5 (Level 5: the growth inhibition rate is greater than 85%) | 5 (Level 5: the growth inhibition rate is greater than 85%) | 5 (Level 5: the growth inhibition rate is greater than 85%) | 
9 | COC(=O)[C@@H](C)Oc1ncc(Cl)c(N)c1C [Compound 2-28] | 5 (Level 5: the growth inhibition rate is greater than 85%) | 5 (Level 5: the growth inhibition rate is greater than 85%) | 5 (Level 5: the growth inhibition rate is greater than 85%) | 5 (Level 5: the growth inhibition rate is greater than 85%) | 5 (Level 5: the growth inhibition rate is greater than 85%) | 
10 | COC(=O)[C@@H](C)Oc1nc(F)c(Cl)c(N)c1C [Compound 2-29] | 5 (Level 5: the growth inhibition rate is greater than 85%) | 5 (Level 5: the growth inhibition rate is greater than 85%) | 5 (Level 5: the growth inhibition rate is greater than 85%) | 5 (Level 5: the growth inhibition rate is greater than 85%) | 5 (Level 5: the growth inhibition rate is greater than 85%) | 
11 | COC(=O)[C@@H](C)Oc1nc(Cl)c(Cl)c(N)c1Cl [Compound 2-31] | 5 (Level 5: the growth inhibition rate is greater than 85%) | 5 (Level 5: the growth inhibition rate is greater than 85%) | 5 (Level 5: the growth inhibition rate is greater than 85%) | 5 (Level 5: the growth inhibition rate is greater than 85%) | 5 (Level 5: the growth inhibition rate is greater than 85%) | 
12 | COC(=O)[C@@H](C)Oc1nc(C)c(Cl)c(N)c1Cl [Compound 2-32] | 5 (Level 5: the growth inhibition rate is greater than 85%) | 5 (Level 5: the growth inhibition rate is greater than 85%) | 5 (Level 5: the growth inhibition rate is greater than 85%) | 5 (Level 5: the growth inhibition rate is greater than 85%) | 5 (Level 5: the growth inhibition rate is greater than 85%) | 
13 | COC(=O)[C@@H](Oc1nc(F)c(Cl)c(N)c1Cl)c1cccs1 [Compound 2-65] |  |  | 5 (Level 5: the growth inhibition rate is greater than 85%) | 5 (Level 5: the growth inhibition rate is greater than 85%) | 5 (Level 5: the growth inhibition rate is greater than 85%) | 
14 | COC(=O)[C@@H](Oc1nc(F)c(Cl)c(N)c1Cl)c1nc(Cl)cs1 [Compound 2-67] |  |  | 5 (Level 5: the growth inhibition rate is greater than 85%) | 5 (Level 5: the growth inhibition rate is greater than 85%) | 5 (Level 5: the growth inhibition rate is greater than 85%) | 
15 | COC(=O)[C@H](Oc1nc(F)c(Cl)c(N)c1Cl)c1[nH]ncc1F [Compound 2-68] |  |  | 5 (Level 5: the growth inhibition rate is greater than 85%) | 5 (Level 5: the growth inhibition rate is greater than 85%) | 5 (Level 5: the growth inhibition rate is greater than 85%) | 
16 | CCOC(=O)C(Oc1nc(F)c(Cl)c(N)c1Cl)C1CC1 (stereo not shown) [Compound 2-383] |  |  | 5 (Level 5: the growth inhibition rate is greater than 85%) | 5 (Level 5: the growth inhibition rate is greater than 85%) | 5 (Level 5: the growth inhibition rate is greater than 85%) | 
17 | CSC(=O)C(Oc1nc(F)c(Cl)c(N)c1Cl)c1ccccc1 (stereo not shown) [Compound 2-385] |  |  | 5 (Level 5: the growth inhibition rate is greater than 85%) | 5 (Level 5: the growth inhibition rate is greater than 85%) | 5 (Level 5: the growth inhibition rate is greater than 85%) | 
18 | C[C@H](Oc1nc(F)c(Cl)c(N)c1Cl)C(=O)OCC1CCCO1 (stereo partly shown) [reference compound] |  |  |  |  |  | 5 to 20
